Source: ChEMBL document CHEMBL4425136, “4-Oxo-1,4-dihydroquinoline-3-carboxamide Derivatives as New Axl Kinase Inhibitors” (J Med Chem, 2016)

How the values were obtained:
[1] = target: T1, Tyrosine-protein kinase receptor UFO (Homo sapiens, UniProt P30530); assay: Inhibition of human recombinant AXL incubated for 1 to 1.5 hrs by FRET based Z'-Lyte kinase assay
T1 sequence (P30530 whole entry): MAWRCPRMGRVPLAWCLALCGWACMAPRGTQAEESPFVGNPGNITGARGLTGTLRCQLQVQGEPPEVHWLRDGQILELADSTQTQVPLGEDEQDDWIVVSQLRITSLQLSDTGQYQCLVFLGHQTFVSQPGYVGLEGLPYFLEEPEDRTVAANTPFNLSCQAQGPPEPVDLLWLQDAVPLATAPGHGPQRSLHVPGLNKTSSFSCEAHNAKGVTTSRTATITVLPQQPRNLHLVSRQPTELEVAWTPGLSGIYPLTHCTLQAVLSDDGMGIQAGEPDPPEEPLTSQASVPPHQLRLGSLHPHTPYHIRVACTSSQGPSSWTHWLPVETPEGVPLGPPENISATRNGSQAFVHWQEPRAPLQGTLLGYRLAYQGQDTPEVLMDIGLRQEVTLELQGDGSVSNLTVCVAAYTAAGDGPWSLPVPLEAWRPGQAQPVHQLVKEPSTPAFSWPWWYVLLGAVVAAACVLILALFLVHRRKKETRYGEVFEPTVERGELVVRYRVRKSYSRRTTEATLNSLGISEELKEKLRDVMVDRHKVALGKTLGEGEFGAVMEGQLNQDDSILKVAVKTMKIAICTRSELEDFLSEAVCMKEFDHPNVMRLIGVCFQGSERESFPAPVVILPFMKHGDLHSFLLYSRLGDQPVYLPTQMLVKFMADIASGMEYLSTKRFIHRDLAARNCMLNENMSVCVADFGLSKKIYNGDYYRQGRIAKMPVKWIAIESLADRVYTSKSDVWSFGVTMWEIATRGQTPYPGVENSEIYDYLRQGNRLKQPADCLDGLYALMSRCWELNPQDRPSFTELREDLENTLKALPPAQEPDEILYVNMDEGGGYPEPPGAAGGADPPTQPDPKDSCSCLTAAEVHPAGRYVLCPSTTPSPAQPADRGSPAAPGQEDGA

[2] = target: T1, Tyrosine-protein kinase receptor UFO; assay: Binding affinity to human AXL by active site dependent completion binding assay
[3] = target: ALK tyrosine kinase receptor (Homo sapiens, UniProt Q9UM73); assay: Binding affinity to human ALK
[4] = target: T1, Tyrosine-protein kinase receptor UFO; assay: Binding affinity to human AXL
[5] = target: Tyrosine-protein kinase Blk (Homo sapiens, UniProt P51451); assay: Binding affinity to human BLK
[6] = target: Aurora kinase A (Homo sapiens, UniProt O14965); assay: Inhibition of aurora A (unknown origin)
Sequence of Aurora kinase A (O14965 whole entry): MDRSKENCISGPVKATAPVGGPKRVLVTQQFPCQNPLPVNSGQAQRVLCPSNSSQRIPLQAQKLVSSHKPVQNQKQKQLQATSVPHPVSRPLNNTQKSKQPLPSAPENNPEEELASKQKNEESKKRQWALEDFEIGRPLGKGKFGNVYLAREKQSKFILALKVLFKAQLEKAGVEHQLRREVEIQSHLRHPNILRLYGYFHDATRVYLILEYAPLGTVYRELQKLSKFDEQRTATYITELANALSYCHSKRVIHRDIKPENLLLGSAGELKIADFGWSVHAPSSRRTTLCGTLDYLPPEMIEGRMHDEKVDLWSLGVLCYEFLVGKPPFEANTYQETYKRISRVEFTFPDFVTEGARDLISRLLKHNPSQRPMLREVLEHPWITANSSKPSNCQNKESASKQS

[7] = target: Aurora kinase B (Homo sapiens, UniProt Q96GD4); assay: Inhibition of aurora B (unknown origin)
Sequence of Aurora kinase B (Q96GD4 whole entry): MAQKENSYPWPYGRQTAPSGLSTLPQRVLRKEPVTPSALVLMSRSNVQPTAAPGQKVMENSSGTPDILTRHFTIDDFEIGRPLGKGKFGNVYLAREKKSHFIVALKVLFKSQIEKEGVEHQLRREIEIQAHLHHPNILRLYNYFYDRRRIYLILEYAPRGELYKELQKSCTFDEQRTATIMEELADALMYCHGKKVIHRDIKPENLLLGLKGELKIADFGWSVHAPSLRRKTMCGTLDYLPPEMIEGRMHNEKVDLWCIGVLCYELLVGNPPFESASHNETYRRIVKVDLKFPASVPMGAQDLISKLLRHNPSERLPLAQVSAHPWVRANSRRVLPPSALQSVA

[8] = target: Cyclin-dependent kinase 11B (Homo sapiens, UniProt P21127); assay: Binding affinity to human CDK11
[9] = target: Cyclin-dependent kinase 8 (Homo sapiens, UniProt P49336); assay: Binding affinity to human CDK8
Sequence of Cyclin-dependent kinase 8 (P49336 whole entry, the tested form may be a part): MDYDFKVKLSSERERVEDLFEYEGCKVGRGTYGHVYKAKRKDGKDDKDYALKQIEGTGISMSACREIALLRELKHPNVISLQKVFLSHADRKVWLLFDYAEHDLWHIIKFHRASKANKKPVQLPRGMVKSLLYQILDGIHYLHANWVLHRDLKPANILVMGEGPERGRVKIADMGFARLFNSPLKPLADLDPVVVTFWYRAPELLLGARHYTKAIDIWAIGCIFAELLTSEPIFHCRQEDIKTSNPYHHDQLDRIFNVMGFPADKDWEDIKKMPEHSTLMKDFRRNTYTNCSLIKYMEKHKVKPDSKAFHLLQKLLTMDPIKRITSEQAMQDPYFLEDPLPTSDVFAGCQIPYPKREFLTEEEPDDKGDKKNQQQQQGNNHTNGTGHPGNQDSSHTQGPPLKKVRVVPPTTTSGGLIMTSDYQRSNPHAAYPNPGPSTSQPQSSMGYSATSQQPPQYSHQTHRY

[10] = target: Epithelial discoidin domain-containing receptor 1 (Homo sapiens, UniProt Q08345); assay: Inhibition of DDR1 (unknown origin)
[11] = target: Discoidin domain-containing receptor 2 (Homo sapiens, UniProt Q16832); assay: Inhibition of DDR2 (unknown origin)
Sequence of Discoidin domain-containing receptor 2 (Q16832 whole entry, the tested form may be a part): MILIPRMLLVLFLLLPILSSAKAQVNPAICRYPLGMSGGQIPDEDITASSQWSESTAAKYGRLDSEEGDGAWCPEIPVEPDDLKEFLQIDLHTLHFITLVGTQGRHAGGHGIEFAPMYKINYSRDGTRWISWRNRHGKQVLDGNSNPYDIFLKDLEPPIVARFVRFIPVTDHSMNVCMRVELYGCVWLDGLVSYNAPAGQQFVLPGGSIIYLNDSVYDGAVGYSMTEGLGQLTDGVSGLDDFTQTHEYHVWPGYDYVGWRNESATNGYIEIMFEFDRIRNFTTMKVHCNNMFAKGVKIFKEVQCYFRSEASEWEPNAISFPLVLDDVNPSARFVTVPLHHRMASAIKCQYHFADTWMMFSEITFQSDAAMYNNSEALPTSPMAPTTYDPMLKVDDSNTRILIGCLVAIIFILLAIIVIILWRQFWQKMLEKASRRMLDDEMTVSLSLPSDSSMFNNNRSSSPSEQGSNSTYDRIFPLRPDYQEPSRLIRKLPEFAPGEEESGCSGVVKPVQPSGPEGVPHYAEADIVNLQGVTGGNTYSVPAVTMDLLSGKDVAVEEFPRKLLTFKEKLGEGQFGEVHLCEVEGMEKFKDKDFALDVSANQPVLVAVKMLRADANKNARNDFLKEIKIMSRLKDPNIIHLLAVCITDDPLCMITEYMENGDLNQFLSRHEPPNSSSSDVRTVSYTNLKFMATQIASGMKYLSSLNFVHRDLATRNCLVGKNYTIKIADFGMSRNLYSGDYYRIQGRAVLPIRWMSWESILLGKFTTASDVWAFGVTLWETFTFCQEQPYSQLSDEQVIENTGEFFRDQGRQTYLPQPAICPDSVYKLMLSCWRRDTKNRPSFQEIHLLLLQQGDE

[12] = target: T2, Receptor-type tyrosine-protein kinase FLT3 (Homo sapiens, UniProt P36888); assay: Binding affinity to human FLT3
T2 sequence (P36888 whole entry): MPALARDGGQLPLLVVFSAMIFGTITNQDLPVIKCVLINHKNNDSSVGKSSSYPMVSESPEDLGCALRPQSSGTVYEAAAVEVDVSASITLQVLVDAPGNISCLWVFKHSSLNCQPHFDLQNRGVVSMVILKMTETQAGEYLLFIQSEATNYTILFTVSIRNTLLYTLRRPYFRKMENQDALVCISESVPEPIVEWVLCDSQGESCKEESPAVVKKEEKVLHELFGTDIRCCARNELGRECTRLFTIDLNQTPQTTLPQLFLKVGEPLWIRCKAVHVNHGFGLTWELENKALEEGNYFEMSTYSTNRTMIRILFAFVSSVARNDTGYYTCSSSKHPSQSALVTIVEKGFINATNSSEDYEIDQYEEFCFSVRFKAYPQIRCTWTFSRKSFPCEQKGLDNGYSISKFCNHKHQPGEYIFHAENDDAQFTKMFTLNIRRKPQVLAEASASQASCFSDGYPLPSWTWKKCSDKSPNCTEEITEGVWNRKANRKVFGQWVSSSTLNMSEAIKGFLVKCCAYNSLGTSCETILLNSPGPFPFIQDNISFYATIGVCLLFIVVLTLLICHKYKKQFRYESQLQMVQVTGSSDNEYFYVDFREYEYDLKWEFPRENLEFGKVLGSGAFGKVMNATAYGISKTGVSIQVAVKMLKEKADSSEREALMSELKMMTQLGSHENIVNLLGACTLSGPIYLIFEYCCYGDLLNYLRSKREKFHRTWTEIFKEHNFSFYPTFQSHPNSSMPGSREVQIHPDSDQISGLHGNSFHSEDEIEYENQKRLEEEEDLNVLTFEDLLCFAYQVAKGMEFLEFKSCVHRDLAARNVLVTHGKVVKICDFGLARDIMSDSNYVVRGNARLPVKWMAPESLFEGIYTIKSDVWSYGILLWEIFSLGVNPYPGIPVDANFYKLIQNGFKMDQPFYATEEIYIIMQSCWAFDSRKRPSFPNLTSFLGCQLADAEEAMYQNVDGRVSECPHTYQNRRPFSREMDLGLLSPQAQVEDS

[13] = target: T2, Receptor-type tyrosine-protein kinase FLT3; assay: Inhibition of FLT3 (unknown origin)
[14] = target: Homeodomain-interacting protein kinase 4 (Homo sapiens, UniProt Q8NE63); assay: Binding affinity to human HIPk4
[15] = target: Mast/stem cell growth factor receptor Kit (Homo sapiens, UniProt P10721); assay: Binding affinity to human KIT
[16] = target: Serine/threonine-protein kinase 10 (Homo sapiens, UniProt O94804); assay: Binding affinity to human LOK
Sequence of Serine/threonine-protein kinase 10 (O94804 whole entry): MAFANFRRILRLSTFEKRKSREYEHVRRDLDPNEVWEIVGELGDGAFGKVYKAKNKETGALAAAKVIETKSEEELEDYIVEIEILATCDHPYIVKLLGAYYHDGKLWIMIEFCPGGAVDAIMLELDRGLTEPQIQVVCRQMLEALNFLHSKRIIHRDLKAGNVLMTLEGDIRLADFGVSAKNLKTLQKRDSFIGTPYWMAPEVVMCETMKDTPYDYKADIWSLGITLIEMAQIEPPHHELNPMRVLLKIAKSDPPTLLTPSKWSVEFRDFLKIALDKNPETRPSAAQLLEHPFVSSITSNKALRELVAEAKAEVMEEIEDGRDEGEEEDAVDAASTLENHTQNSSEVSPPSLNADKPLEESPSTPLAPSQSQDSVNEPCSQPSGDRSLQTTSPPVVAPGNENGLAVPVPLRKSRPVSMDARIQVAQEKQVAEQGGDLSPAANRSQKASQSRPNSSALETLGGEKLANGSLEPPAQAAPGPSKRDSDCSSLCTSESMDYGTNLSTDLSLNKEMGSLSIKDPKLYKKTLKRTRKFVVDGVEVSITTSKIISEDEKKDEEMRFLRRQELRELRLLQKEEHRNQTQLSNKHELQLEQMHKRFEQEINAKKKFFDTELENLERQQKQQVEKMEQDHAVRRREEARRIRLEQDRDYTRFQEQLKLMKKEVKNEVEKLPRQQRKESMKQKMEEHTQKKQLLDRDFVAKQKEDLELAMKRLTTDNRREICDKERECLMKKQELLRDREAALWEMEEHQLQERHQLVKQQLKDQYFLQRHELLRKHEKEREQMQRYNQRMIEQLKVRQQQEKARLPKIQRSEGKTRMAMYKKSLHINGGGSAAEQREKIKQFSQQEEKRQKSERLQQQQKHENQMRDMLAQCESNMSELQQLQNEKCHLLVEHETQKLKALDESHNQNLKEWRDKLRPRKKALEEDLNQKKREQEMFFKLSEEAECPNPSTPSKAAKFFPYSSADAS

[17] = target: Dual specificity mitogen-activated protein kinase kinase 5 (Homo sapiens, UniProt Q13163); assay: Binding affinity to human MEK5
[18] = target: Tyrosine-protein kinase Mer (Homo sapiens, UniProt Q12866); assay: Binding affinity to human MER
Sequence of Tyrosine-protein kinase Mer (Q12866 whole entry): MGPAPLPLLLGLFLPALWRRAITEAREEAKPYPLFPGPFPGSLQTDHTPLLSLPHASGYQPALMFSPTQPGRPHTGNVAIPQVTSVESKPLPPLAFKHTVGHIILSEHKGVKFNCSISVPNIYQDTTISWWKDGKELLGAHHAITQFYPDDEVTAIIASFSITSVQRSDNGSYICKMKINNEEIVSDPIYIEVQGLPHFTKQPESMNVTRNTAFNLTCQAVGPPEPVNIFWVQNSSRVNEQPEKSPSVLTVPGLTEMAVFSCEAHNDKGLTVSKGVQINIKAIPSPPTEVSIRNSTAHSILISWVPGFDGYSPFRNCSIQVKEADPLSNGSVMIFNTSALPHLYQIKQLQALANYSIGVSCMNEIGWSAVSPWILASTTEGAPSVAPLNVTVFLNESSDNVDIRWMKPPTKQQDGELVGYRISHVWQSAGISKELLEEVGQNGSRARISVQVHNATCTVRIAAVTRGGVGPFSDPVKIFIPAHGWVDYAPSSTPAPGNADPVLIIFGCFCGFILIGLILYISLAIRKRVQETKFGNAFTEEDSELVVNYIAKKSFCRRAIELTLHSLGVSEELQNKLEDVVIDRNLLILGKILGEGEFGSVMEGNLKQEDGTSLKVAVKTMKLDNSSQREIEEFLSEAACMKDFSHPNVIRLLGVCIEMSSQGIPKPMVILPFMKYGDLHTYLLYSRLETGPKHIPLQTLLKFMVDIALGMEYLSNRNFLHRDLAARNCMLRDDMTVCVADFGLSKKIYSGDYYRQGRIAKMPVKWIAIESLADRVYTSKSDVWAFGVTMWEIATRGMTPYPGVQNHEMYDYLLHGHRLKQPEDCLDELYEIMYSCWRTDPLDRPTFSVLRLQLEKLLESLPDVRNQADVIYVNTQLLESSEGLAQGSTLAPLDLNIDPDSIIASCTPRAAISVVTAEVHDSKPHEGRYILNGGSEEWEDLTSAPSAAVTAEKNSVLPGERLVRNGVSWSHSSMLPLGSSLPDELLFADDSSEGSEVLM

[19] = target: Hepatocyte growth factor receptor (Homo sapiens, UniProt P08581); assay: Binding affinity to human MET
[20] = target: STE20-like serine/threonine-protein kinase (Homo sapiens, UniProt Q9H2G2); assay: Binding affinity to human SLK
[21] = target: High affinity nerve growth factor receptor (Homo sapiens, UniProt P04629); assay: Binding affinity to human TRKA
[22] = target: BDNF/NT-3 growth factors receptor (Homo sapiens, UniProt Q16620); assay: Binding affinity to human TRKB
[23] = target: Tyrosine-protein kinase receptor TYRO3 (Homo sapiens, UniProt Q06418); assay: Binding affinity to human Tyro3
[24] = tested on: MDA-MB-231; assay: Effect on total AXL protein level in human MDA-MB-231 cells at 0.03 to 3 uM after 6 hrs by Western blot method; format: ADME, cell-based; details: mda-mb-231, 6 h
[25] = tested on: MDA-MB-231; assay: Effect on total AKT protein level in human MDA-MB-231 cells at 0.03 to 3 uM after 6 hrs by Western blot method; format: ADME, cell-based; details: mda-mb-231, 6 h
[26] = tested on: MDA-MB-231; assay: Antiproliferative activity against human MDA-MB-231 cells after 24 to 72 hrs by MTT assay; format: functional, cell-based
[27] = tested on: 4T1; assay: Antiproliferative activity against mouse 4T1 cells over-expressing Axl cells after 24 to 72 hrs by MTT assay; format: functional, cell-based
[28] = tested on: MDA-MB-231; assay: Antiproliferative activity against human MDA-MB-231 cells after 24 to 72 hrs by CCK8 assay; format: functional, cell-based
[29] = tested on: 4T1; assay: Antiproliferative activity against mouse 4T1 cells over-expressing Axl cells after 24 to 72 hrs by CCK8 assay; format: functional, cell-based
[30] = Tmax in Sprague-Dawley rat at 25 mg/kg, po by LC/MS method; format: ADME, organism-based; details: in vivo
[31] = AUC (0 to infinity) in Sprague-Dawley rat at 2.5 mg/kg, iv by LC/MS method; format: ADME, organism-based; parameters: dose 2.5 mg/kg, route intravenous, time infinity; details: in vivo
[32] = Half life in Sprague-Dawley rat at 2.5 mg/kg, iv by LC/MS method; format: ADME, organism-based; details: in vivo
[33] = Cmax in Sprague-Dawley rat at 2.5 mg/kg, iv by LC/MS method; format: ADME, organism-based; parameters: dose 2.5 mg/kg, route intravenous; details: in vivo
[34] = Clearance in Sprague-Dawley rat at 2.5 mg/kg, iv by LC/MS method; format: ADME, organism-based; details: in vivo
[35] = Ratio of Cmax in Sprague-Dawley rat at 25 mg/kg, po to IC50 for inhibition of human recombinant AXL; format: organism-based; details: in vivo
[36] = tested on: MDA-MB-231; assay: Inhibition of TGFbeta1-induced cell migration in human MDA-MB-231 cells at 0.2 uM incubated for 24 hrs by wound healing assay; format: functional; details: MDA-MB-231, 24 h
[37] = tested on: MDA-MB-231; assay: Inhibition of TGFbeta1-induced cell migration in human MDA-MB-231 cells at 1 uM incubated for 24 hrs by wound healing assay; format: functional; details: MDA-MB-231, 24 h
[38] = tested on: MDA-MB-231; assay: Inhibition of TGFbeta1-induced cell migration in human MDA-MB-231 cells at 5 uM incubated for 24 hrs by wound healing assay; format: functional; details: MDA-MB-231, 24 h
[39] = tested on: MDA-MB-231; assay: Inhibition of TGFbeta1-induced cell invasion in human MDA-MB-231 cells at 0.04 uM incubated for 24 hrs by matrigel-mediated Boyden chamber assay; format: functional; details: MDA-MB-231, 24 h
[40] = tested on: MDA-MB-231; assay: Inhibition of TGFbeta1-induced cell invasion in human MDA-MB-231 cells at 0.2 uM incubated for 24 hrs by matrigel-mediated Boyden chamber assay; format: functional; details: MDA-MB-231, 24 h
[41] = tested on: MDA-MB-231; assay: Inhibition of TGFbeta1-induced cell invasion in human MDA-MB-231 cells at 1 uM incubated for 24 hrs by matrigel-mediated Boyden chamber assay; format: functional; details: MDA-MB-231, 24 h
[42] = tested on: MDA-MB-231; assay: Inhibition of TGFbeta1-induced cell invasion in human MDA-MB-231 cells at 5 uM incubated for 24 hrs by matrigel-mediated Boyden chamber assay; format: functional; details: MDA-MB-231, 24 h
[43] = tested on: MDA-MB-231; assay: Toxicity in human MDA-MB-231 cells at 0.04 to 5 uM incubated for 24 hrs; format: cell-based; details: mda-mb-231, 24 h
[44] = Oral bioavailability in Sprague-Dawley rat at 25 mg/kg by LC/MS method; format: ADME, organism-based; details: in vivo

C=C(C)c1ccc2c(c1)c(=O)c(C(=O)Nc1ccc(Oc3ncnc4[nH]cc(-c5ccccc5)c34)c(F)c1)c(C)n2C
IC50 [1]: 170 nM

Cc1c(C(=O)Nc2ccc(Oc3ncnc4[nH]cc(-c5ccccc5)c34)c(F)c2)c(=O)c2cc(C3CC3)ccc2n1C
IC50 [1]: 230 nM

Cc1c(C(=O)Nc2ccc(Oc3ncnc4[nH]cc(-c5ccccc5)c34)c(F)c2)c(=O)c2cc(OC(F)(F)F)ccc2n1C
IC50 [1]: 74 nM

CCc1ccc2c(c1)c(=O)c(C(=O)Nc1ccc(Oc3ncnc4cc(OC)c(OC)cc34)c(F)c1)c(C)n2C
Kd [2]: 2.7 nM
Kd [3]: > 1000 nM
Kd [4]: 2.7 nM
Kd [5]: 200 nM
IC50 [6]: 192 nM
IC50 [7]: 114 nM
Kd [8]: 470 nM
Kd [9]: > 1000 nM
IC50 [10]: 22.2 nM
IC50 [11]: 350 nM
Kd [12]: 4 nM
IC50 [13]: < 10 nM
Kd [14]: 11 nM
Kd [15]: 1670 nM
Kd [16]: 10 nM
Kd [17]: 38 nM
Kd [18]: 1.4 nM
Kd [19]: 79 nM
Kd [20]: 240 nM
Kd [21]: 50 nM
Kd [22]: 54 nM
Kd [23]: 58 nM
Activity [24]: Non-Toxic
Activity [25]: Non-Toxic
IC50 [26]: > 10000 nM
IC50 [27]: > 10000 nM
IC50 [28]: > 10000 nM
IC50 [29]: > 10000 nM
Tmax [30]: 6 h
AUC(0-inf) [31]: 42300 ng·h/mL
half-life [32]: 25.2 h
Cmax [33]: 1170 ng/mL
clearance [34]: 1.67 mL/min/kg
Ratio [35]: > 900
inhibition at 0.2 µM [36]: 24.2%
inhibition at 1 µM [37]: 50.6%
inhibition at 5 µM [38]: 58.4%
inhibition at 0.04 µM [39]: 48.5%
inhibition at 0.2 µM [40]: 52.1%
inhibition at 1 µM [41]: 73.5%
inhibition at 5 µM [42]: 78.1%
Activity [43]: Non-Toxic

CCc1ccc2c(c1)c(=O)c(C(=O)Nc1ccc(Oc3ncnc4[nH]cc(-c5ccccc5)c34)c(F)c1)c(C)n2C
Kd [2]: 1.2 nM
Activity [24]: Non-Toxic
Activity [25]: Non-Toxic
IC50 [26]: > 10000 nM
IC50 [27]: > 10000 nM
IC50 [28]: > 10000 nM
IC50 [29]: > 10000 nM
Tmax [30]: 0.67 h
bioavailability [44]: 1.2%

CCc1ccc2c(c1)c(=O)c(C(=O)Nc1ccc(Oc3ncnc4[nH]cc(-c5ccccc5)c34)cc1F)c(C)n2C
IC50 [1]: 30 nM

Cc1c(C(=O)Nc2ccc(Oc3ncnc4[nH]cc(-c5ccccc5)c34)c(F)c2)c(=O)c2cc(C(F)(F)F)ccc2n1C
IC50 [1]: 150 nM

Cc1ccc2c(c1)c(=O)c(C(=O)Nc1ccc(Oc3ncnc4[nH]cc(-c5ccccc5)c34)c(F)c1)c(C)n2C
IC50 [1]: 100 nM

Cc1c(C(=O)Nc2ccc(Oc3ncnc4[nH]cc(-c5ccccc5)c34)c(F)c2)c(=O)c2cc(C3CCCC3)ccc2n1C
IC50 [1]: 200 nM

CCc1ccc2c(c1)c(=O)c(C(=O)Nc1ccc(Oc3ccnc4[nH]cc(-c5ccccc5)c34)c(F)c1)c(C)n2C
IC50 [1]: 30 nM

COC(=O)c1ccc2c(c1)c(=O)c(C(=O)Nc1ccc(Oc3ncnc4[nH]cc(-c5ccccc5)c34)c(F)c1)c(C)n2C
IC50 [1]: > 10000 nM

CCc1ccc2c(c1)c(=O)c(C(=O)Nc1ccc(Oc3ccnc(Cl)c3)c(F)c1)c(C)n2C
IC50 [1]: > 10000 nM

Cc1ccc2c(c1)c(=O)c(C(=O)Nc1ccc(Oc3ncnc4[nH]cc(-c5ccccc5)c34)c(F)c1)cn2C
IC50 [1]: 150 nM

CCn1c(C)c(C(=O)Nc2ccc(Oc3ncnc4[nH]cc(-c5ccccc5)c34)c(F)c2)c(=O)c2cc(C)ccc21
IC50 [1]: 150 nM

CCc1ccc2c(c1)c(=O)c(C(=O)Nc1ccc(Oc3ccnc(C(N)=O)c3Cl)c(F)c1)c(C)n2C
IC50 [1]: > 10000 nM

CCc1ccc2c(c1)c(=O)c(C(=O)Nc1ccc(Oc3ccnc4occ(-c5ccccc5)c34)c(F)c1)c(C)n2C
IC50 [1]: 192 nM

Cc1c(C(=O)Nc2ccc(Oc3ncnc4[nH]cc(-c5ccccc5)c34)c(F)c2)c(=O)c2cc(C3=CCCC3)ccc2n1C
IC50 [1]: 3320 nM
